Source: patent US11708367B2, “Compounds for the treatment of kinase-dependent disorders” (Exelixis, Inc., priority 2018, dated 2023)
pIC50: −log10 of the molar value.

Columns and labels:
[1] = molecular target: AXL (Homo sapiens (Human), UniProt P30530); assay: AXL autophosphorylation ELISA in A-172 cells; format: cell-based; details: cellular, Gas6-stimulated, phospho-AXL ELISA
Summary of the method: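 A-172 glioblastoma cells, serum-starved 24 h, got 8-point compound dilutions (0.3% DMSO) for 1 h, then 1 μg/mL human Gas6 for 15 min. Phospho-AXL in lysates was quantified by ELISA against a standard, normalized between DMSO and reference-inhibitor controls; IC50 by 4-parameter logistic fit.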

[2] = molecular target: Human Axl (Homo sapiens (Human), UniProt P30530, Q764R); assay: Human AXL kinase assay (33P radiometric, KinaseProfiler); format: biochemical; details: 10 μM ATP
Sequence of Human Axl (P30530 473-894 Q764R): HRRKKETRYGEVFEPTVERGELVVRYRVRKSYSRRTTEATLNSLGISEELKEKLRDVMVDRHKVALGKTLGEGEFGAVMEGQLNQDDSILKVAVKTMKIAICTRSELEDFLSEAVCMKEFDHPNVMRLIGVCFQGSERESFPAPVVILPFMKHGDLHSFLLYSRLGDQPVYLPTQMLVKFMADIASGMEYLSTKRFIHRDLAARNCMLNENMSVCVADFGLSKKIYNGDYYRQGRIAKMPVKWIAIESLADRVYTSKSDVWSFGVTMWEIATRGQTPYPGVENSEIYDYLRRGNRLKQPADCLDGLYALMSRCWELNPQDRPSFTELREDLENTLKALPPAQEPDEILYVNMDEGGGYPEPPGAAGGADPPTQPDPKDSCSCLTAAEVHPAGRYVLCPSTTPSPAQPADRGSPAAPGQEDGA
Protocol: Kinase activity and compound inhibition were investigated using the ^33P-Phosphoryl transfer radiometric kinase assay, performed using the KinaseProfiler™ service of Eurofins Pharma Discovery Services UK Limited. Dose-response experiments were performed using nine compound concentrations in a 96-well microtiter plate. For each assay, all compounds were prepared to a 50× final assay concentration (50 μM) in 100% DMSO, then diluted in a half-log series, with the final top concentration at 1 μM. This working stock of the compound was added to the assay well as the first component in the reaction, followed by the remaining components as detailed in the following assay protocols below. The positive control wells (100% kinase activity) contain all components of the reaction including 2% DMSO (control for solvent effects), except the compound of interest. Blank wells contain all components of the reaction, with the reference inhibitor, staurosporine. This reference compound was used to abolish kinase activity and generated the 0% kinase activity base-line. IC50 values were calculated by nonlinear regression analysis using the sigmoidal dose-response (variable slope) curve fit on XLFit version 5.3 (ID Business Solutions).
Human Axl (residues H473-A894 with Q764R, 161 nM) was incubated with 8 mM MOPS pH 7.0, 0.2 mM EDTA, 250 μM KKSRGDYMTMQIG (SEQ ID NO. 43), 10 mM magnesium acetate and 10 μM [γ-33P-ATP]. The reaction was initiated by the addition of the Mg/ATP mix. After incubation for 40 minutes at room temperature, the reaction was stopped by the addition of phosphoric acid to a concentration of 0.5%. A reaction aliquot of 10 μL was then spotted onto a P30 filtermat and washed four times for 4 minutes in 0.425% phosphoric acid and once in methanol prior to drying and scintillation counting. Incorporated ^33P was measured using the Wallac Microbeta scintillation counter (Perkin Elmer).

[3] = molecular target: Mer (Homo sapiens (Human), UniProt Q12866); assay: Mer autophosphorylation ELISA in transient transfected 293A cells; format: cell-based; details: cellular, MERTK-transfected 293A cells, phospho-Mer ELISA
Sequence of Mer (Q12866 21-999): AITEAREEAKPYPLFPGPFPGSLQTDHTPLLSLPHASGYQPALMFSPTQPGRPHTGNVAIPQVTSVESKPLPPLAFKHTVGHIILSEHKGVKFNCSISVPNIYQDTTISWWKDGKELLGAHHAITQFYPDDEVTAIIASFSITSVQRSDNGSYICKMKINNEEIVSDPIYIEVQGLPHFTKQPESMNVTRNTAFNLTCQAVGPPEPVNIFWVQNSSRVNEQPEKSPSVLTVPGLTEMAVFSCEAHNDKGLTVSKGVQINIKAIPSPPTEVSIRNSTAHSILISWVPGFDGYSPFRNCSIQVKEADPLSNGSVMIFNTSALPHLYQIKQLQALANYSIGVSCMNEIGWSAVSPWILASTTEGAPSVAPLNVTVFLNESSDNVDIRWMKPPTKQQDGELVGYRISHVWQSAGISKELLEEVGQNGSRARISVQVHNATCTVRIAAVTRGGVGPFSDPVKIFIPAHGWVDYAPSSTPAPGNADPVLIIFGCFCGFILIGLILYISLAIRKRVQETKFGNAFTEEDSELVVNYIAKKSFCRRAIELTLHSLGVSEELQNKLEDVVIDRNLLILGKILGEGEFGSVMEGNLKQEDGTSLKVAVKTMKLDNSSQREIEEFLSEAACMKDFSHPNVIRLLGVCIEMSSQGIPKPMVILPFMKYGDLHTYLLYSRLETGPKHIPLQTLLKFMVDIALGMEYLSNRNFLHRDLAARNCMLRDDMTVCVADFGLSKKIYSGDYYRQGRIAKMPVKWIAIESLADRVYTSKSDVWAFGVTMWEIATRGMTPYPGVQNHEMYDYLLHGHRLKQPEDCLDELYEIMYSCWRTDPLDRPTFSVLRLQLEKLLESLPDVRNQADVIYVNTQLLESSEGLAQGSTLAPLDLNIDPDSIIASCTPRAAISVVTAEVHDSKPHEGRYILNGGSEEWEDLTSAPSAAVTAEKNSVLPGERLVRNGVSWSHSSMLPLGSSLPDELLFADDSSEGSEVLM
Protocol: 293A cells (Thermo Fisher #R70507) were seeded at 1.5×10^6 cells/well onto 100 mm dish (Greiner #664169), in DMEM (Thermo Fisher #11995-040) containing 10% FBS (Thermo Fisher #26140-079), 1% MEM NEAA (Thermo Fisher #11140-050), 1% GlutaMax (Thermo Fisher #35050-061), and 1% Penicillin Streptomycin (Thermo Fisher #15140-122). 293A cells were incubated at 37° C., 5% CO2 for 24 h and then transfected with 6 μg MERTK DNA (Genecopoeia #EX-Z8208-M02) using TransIT LT1 transfection reagent (Mirus-Bio #MIR2305). After 24 h incubation, the transfected 293A cells were seeded at 1×10^5 cells/well onto 96-well plates (Corning #3904) in DMEM growth medium overnight. Test compounds were serially diluted to produce an 8-point dose curve in fresh serum-free medium to a final concentration of 0.3% DMSO (vehicle) and added to the cells and incubated for 1 h. Cells were then immediately lysed with 150 μL of cold IX lysis buffer [20 mM Tris, 137 mM sodium chloride, 2 mM EDTA, 10% glycerol, 1% NP-40 alternative, 1 mM activated sodium orthovanadate, 1 mM PefaBloc SC (Sigma-Aldrich #11429868001), protease/phosphatase inhibitor tablet (Thermo Fisher #A32959)]. Lysates were clarified by centrifugation and 50 μL/well added into the human phospho-Mer DuoSet IC ELISA (R&D Systems #DYC2579-2). Assay was performed according to manufacturer's instructions and sample phospho-Mer concentrations were extrapolated using human phospho-Mer control (R&D Systems #841793) as a standard. Positive control wells (100% activity) contained DMSO-treated cell lysates. Negative control wells (0% activity) contained reference inhibitor-treated cell lysates. IC50 values were calculated by nonlinear regression analysis using a 4-parameter logistic curve fit in ActivityBase XE (IDBS).

Sequence of AXL (P30530 26-894): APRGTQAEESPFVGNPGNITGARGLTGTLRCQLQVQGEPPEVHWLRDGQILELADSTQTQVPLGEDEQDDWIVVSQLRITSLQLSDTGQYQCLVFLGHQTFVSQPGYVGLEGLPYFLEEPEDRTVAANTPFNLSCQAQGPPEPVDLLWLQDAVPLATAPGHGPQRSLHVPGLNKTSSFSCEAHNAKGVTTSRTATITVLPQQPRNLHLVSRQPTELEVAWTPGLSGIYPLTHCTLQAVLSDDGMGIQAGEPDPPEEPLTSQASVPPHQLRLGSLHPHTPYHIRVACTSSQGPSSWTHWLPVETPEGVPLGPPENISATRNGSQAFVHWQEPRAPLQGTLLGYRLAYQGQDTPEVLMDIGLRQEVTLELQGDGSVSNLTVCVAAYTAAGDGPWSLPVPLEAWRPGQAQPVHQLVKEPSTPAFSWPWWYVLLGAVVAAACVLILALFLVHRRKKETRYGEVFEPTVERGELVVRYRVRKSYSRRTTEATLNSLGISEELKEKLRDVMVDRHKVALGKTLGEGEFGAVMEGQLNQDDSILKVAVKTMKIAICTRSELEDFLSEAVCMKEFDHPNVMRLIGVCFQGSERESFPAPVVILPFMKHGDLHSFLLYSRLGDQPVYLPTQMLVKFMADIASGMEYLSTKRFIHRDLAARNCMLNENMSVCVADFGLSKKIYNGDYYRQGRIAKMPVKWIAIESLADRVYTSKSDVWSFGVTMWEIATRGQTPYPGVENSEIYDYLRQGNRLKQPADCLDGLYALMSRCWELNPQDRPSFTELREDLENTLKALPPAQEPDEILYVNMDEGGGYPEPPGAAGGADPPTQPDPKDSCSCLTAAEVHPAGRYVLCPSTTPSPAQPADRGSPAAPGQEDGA

Row | Structure (SMILES) | pIC50 [1] | pIC50 [2] | pIC50 [3]
1 | COc1cc2ncnc(Oc3ccc(NC(=O)C4(C(=O)Nc5ccc(F)cc5)CC4)cc3)c2cc1C(=O)NC[C@@H]1CCCN1C(=O)OC(C)(C)C [Compound 120, tert-butyl (2S)-2-[[[4-[4-[[1-[(4-fluoro-phenyl)carbamoyl]cyclo-propane-carbonyl]amino]phenoxy]-7-methoxyquinazoline-6-carbonyl]amino]methyl]pyr-rolidine-1-carboxylate] | < 6.52 | 7.00 to 8.00 | 
2 | COc1cc2ncnc(Oc3ccc(NC(=O)C4(C(=O)Nc5ccc(F)cc5)CC4)cc3)c2cn1 [Compound 104, 1-N′-(4-fluorophenyl)-1-N-[4-(7-methoxypyrido[4,3-d]pyrimidin-4-yl)oxy-phenyl]cyclopropane-1,1-dicarboxamide] | < 6.52 | 7.00 to 8.00 | 
3 | COc1cc2ncnc(Oc3ccc(NC(=O)C4(C(=O)Nc5ccc(F)cc5)CC4)cc3)c2cc1C(=O)NC1CC1 [Compound 116, 1-N-[4-[6-(cyclopropylcarbamoyl)-7-methoxyquinazolin-4-yl]oxyphenyl]-1-N′-(4-fluorophenyl)cyclopropane-1,1-dicarboxamide] | 6.52 to 7.00 | 7.00 to 8.00 | 
4 | COc1cc2ncnc(Oc3ccc(NC(=O)C4(C(=O)Nc5ccc(F)cc5)CC4)cc3)c2cc1C(=O)NC[C@H]1CCCN1 [Compound 121, 1-N′-(4-fluorophenyl)-1-N-[4-[7-methoxy-6-[[(2R)-pyrrolidin-2-yl]methyl-carbamoyl]quinazolin-4-yl]oxyphenyl]cyclopropane-1,1-dicarboxamide] | 7.00 to 8.00 | ≥ 8.00 | 
5 | COc1cc2ncnc(Oc3ccc(NC(=O)C4(C(=O)Nc5ccc(F)cc5)CC4)cc3)c2cc1C(=O)NC1COC1 [Compound 115, 1-N′-(4-fluorophenyl)-1-N-[4-[7-methoxy-6-(oxetan-3-ylcarbamoyl)quinazolin-4-yl]oxyphenyl]cyclopropane-1,1-dicarboxamide] | < 6.52 | 7.00 to 8.00 | 
6 | COc1cc2ncnc(Oc3ccc(NC(=O)C4(C(=O)Nc5ccc(F)cc5)CC4)cc3)c2cc1C(N)=O [Compound 117, 1-N-[4-(6-carbamoyl-7-methoxyquinazolin-4-yl)oxyphenyl]-1-N′-(4-fluorophenyl)cyclopropane-1,1-dicarboxamide] | ≥ 8.00 | 7.00 to 8.00 | 
7 | COc1cc2ncnc(Oc3ccc(NC(=O)C4(C(=O)Nc5ccc(F)cc5)CC4)cc3)c2cc1C(=O)NC[C@H]1CCCN1C(=O)OC(C)(C)C [Compound 119, tert-butyl (2R)-2-[[[4-[4-[[1-[(4-fluoro-phenyl)carbamoyl]cyclo-propane-carbonyl]amino]phenoxy]-7-methoxyquinazoline-6-carbonyl]amino]methyl]pyr-rolidine-1-carboxylate] | 6.52 to 7.00 | 7.00 to 8.00 | 
8 | COc1cc2ncnc(Oc3ccc(NC(=O)C4(C(=O)Nc5ccc(F)cc5)CC4)cc3)c2cc1C(=O)NCCN1CCCC1 [Compound 118, 1-N′-(4-fluorophenyl)-1-N-[4-[7-methoxy-6-(2-pyrrolidin-1-ylethyl-carbamoyl)quinazolin-4-yl]oxyphenyl]cyclopropane-1,1-dicarboxamide] | 7.00 to 8.00 | 7.00 to 8.00 | 7.00 to 8.00
9 | COc1nc2c(Oc3ccc(NC(=O)C4(C(=O)Nc5ccc(F)cc5)CC4)cc3)ncnc2cc1OCCCN1CCOCC1 [Compound 65, 1-N′-(4-fluorophenyl)-1-N-[4-[6-methoxy-7-(3-morpholin-4-ylpropoxy)pyrido[3,2-d]pyrimidin-4-yl]oxyphenyl]cyclopropane-1,1-dicarboxamide] | ≥ 8.00 | 7.00 to 8.00 | 7.00 to 8.00
10 | COc1cc2ncnc(Oc3ccc(NC(=O)C4(C(=O)Nc5ccc(F)cc5)CC4)cc3)c2cc1C(=O)NC[C@@H]1CCCN1 [Compound 122, 1-N′-(4-fluorophenyl)-1-N-[4-[7-methoxy-6-[[(2S)-pyrrolidin-2-yl]methyl-carbamoyl]quinazolin-4-yl]oxyphenyl]cyclopropane-1,1-dicarboxamide] | 7.00 to 8.00 | ≥ 8.00 | 
11 | COc1cc2c(Oc3ccc(NC(=O)C4(C(=O)Nc5ccc(F)cc5)CC4)cc3)ncnc2cn1 [Compound 91, 1-N′-(4-fluorophenyl)-1-N-[4-(6-methoxypyrido[3,4-d]pyrimidin-4-yl)oxyphenyl]cyclopropane-1,1-dicarboxamide] | < 6.52 | 6.00 to 7.00 | 

Second part, the compound after the results:

Row | pIC50 [1] | pIC50 [2] | pIC50 [3] | Structure (SMILES)
12 | ≥ 8.00 | ≥ 8.00 | ≥ 8.00 | COc1cc2nccc(Oc3ccc(NC(=O)C4(C(=O)Nc5ccc(F)cc5)CC4)cc3)c2nc1OC [Compound 139, 1-N-[4-[(6,7-dimethoxy-1,5-naphthyridin-4-yl)oxy]phenyl]-1-N′-(4-fluorophenyl)cyclo-propane-1,1-dicarboxamide]
13 | ≥ 8.00 | ≥ 8.00 | ≥ 8.00 | COc1cc2nccc(Oc3ccc(NC(=O)C4(C(=O)Nc5ccc(F)cc5)CC4)cc3F)c2nc1OC [Compound 140, 1-N′-[4-[(6,7-dimethoxy-1,5-naphthyridin-4-yl)oxy]-3-fluorophenyl]-1-N-(4-fluorophenyl)cyclopropane-1,1-dicarboxamide]
14 | ≥ 8.00 | ≥ 8.00 |  | COc1nc2c(Oc3ccc(NC(=O)C4(C(=O)Nc5ccc(F)cc5)CC4)cc3Cl)ncnc2cc1OCCCN1CCOCC1 [Compound 66, 1-N′-[3-chloro-4-[6-methoxy-7-(3-morpholin-4-ylpropoxy)pyrido[3,2-d]pyrimidin-4-yl]oxyphenyl]-1-N-(4-fluorophenyl)cyclo-propane-1,1-dicarboxamide]
15 | 7.00 to 8.00 | ≥ 8.00 | 7.00 to 8.00 | COc1cc2ncnc(Oc3ccc(NC(=O)C4(C(=O)Nc5ccc(F)cc5)CC4)cc3)c2nc1OC [Compound 28, 1-N-[4-(6,7-dimethoxy-pyrido[3,2-d]pyrimidin-4-yl)oxyphenyl]-1-N′-(4-fluorophenyl)cyclo-propane-1,1-dicarboxamide]
16 | 7.00 to 8.00 | 7.00 to 8.00 |  | COc1cc2nccc(Oc3ccc(NC(=O)C4(C(=O)Nc5ccc(F)cc5)CC4)cc3Cl)c2nc1OC [Compound 141, 1-N′-[3-chloro-4-[(6,7-dimethoxy-1,5-naphthyridin-4-yl)oxy]phenyl]-1-N-(4-fluorophenyl)cyclo-propane-1,1-dicarboxamide]
17 | ≥ 8.00 | ≥ 8.00 | ≥ 8.00 | COc1cc2ncnc(Oc3ccc(NC(=O)C4(C(=O)Nc5ccc(F)cc5)CC4)cc3F)c2nc1OC [Compound 30, 1-N′-[4-(6,7-dimethoxypyrido[3,2-d]pyrimidin-4-yl)oxy-3-fluorophenyl]-1-N-(4-fluorophenyl)cyclopropane-1,1-dicarboxamide]
18 | 7.00 to 8.00 | 7.00 to 8.00 |  | COc1cc2ncnc(Oc3ccc(NC(=O)C4(C(=O)Nc5ccc(F)cc5)CC4)cc3Cl)c2nc1OC [Compound 29, 1-N′-[3-chloro-4-(6,7-dimethoxypyrido[3,2-d]pyrimidin-4-yl)oxyphenyl]-1-N-(4-fluorophenyl)cyclo-propane-1,1-dicarboxamide]
19 | ≥ 8.00 | ≥ 8.00 | ≥ 8.00 | COc1nc2c(Oc3ccc(NC(=O)C4(C(=O)Nc5ccc(F)cc5)CC4)cc3F)ncnc2cc1OCCCN1CCOCC1 [Compound 67, 1-N′-[3-fluoro-4-[6-methoxy-7-(3-morpholin-4-ylpropoxy)pyrido[3,2-d]pyrimidin-4-yl]oxyphenyl]-1-N-(4-fluorophenyl)cyclo-propane-1,1-dicarboxamide]
